Test results reported in US5536737A, “Compound having prolyl endopeptidase inhibitory activity and pharmaceutical use thereof” (Japan Tobacco Inc., priority 1992, dated 1996).

How the values were obtained:
Type in all cases: biochemical
prolyl endopeptidase = target: T1, prolyl endopeptidase (Rattus norvegicus, UniProt O70196); assay: Prolyl endopeptidase-inhibitory activity
T1 construct: prolyl endopeptidase extracted from rat brain; from tissue; host or cells: rat brain
T1 sequence (O70196 1-710): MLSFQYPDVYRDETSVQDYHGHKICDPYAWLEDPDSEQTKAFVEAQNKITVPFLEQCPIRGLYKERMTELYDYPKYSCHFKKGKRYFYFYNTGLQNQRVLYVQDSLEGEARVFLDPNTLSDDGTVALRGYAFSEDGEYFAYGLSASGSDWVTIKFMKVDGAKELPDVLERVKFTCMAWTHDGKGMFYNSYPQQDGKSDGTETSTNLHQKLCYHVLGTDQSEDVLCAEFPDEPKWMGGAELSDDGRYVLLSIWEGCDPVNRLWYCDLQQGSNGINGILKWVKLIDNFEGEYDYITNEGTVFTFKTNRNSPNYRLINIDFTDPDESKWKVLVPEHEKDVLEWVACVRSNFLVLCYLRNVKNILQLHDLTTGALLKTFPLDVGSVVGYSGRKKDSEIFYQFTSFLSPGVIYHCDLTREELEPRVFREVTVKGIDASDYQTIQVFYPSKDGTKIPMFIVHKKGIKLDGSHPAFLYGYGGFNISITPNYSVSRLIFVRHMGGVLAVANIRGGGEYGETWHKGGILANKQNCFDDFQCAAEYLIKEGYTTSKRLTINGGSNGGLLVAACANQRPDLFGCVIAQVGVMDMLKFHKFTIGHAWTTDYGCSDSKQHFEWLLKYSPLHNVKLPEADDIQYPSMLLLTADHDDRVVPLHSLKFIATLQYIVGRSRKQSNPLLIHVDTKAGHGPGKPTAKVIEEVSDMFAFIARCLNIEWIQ
Method: Prolyl endopeptidase-inhibitory activity
A mixture of a 0.1M potassium-sodium phosphate buffer (pH 7.0, 2675 μl ), a solution of the compound of the present invention in a 0.1M potassium-sodium phosphate buffer (pH 7.0, 100 μl ) and a solution of prolyl endopeptidase extracted from rat brain in a 25 mM sodium phosphate buffer (100 μl ) [123 unit/1, pH 6.8, containing 1 mM dithiothreitol and 0.5 mM EDTA, prepared by the method described in J. Neurochem., 35, 527 (1980)] was preincubated at 30° C. for 30 minutes. Thereto was added a 0.2 mM solution of 7-(N-succinyl-glycyl-prolyl)-4methylcoumarinamide (Peptide Institute, INC.) in a 0.1M potassium-sodium phosphate buffer (pH 7.0, 125 μl), and the mixture was incubated at 30° C. for 1 hour. The reaction mixture was immersed in ice (0° C.) to terminate the reaction, and the fluorescence (a1) was determined ten minutes later (excitation at 370 nm and emission at 440 nm). Concurrently, an experiment wherein, in the above system, the prolyl endopeptidase solution was substituted for a 25 mM sodium phosphate buffer (pH 6.8, containing 1 mM dithiothreitol and 0.5 mM EDTA) and an experiment wherein the solution of the compound of the present invention was substituted for a 0.1M potassium-sodium phosphate buffer (pH 7.0) were conducted. Each fluorescence (a2 and a3) was determined [See Tanpakushitsu Kakusan Koso, 29, 127 (1984)]. The prolyl endopeptidase inhibition was calculated by the following formula, and IC50, a concentration necessary for 50% inhibition, was estimated by using a semilogarithmic graph paper. [formula]

trypsin = target: T2, trypsin (Bos taurus, UniProt P00760); assay: Trypsin-inhibitory activity; details: concentration 0.1 μM; bovine pancreas, pH 8.0
T2 construct: purchased Sigma; host or cells: bovine pancreas
T2 sequence (P00760 24-246): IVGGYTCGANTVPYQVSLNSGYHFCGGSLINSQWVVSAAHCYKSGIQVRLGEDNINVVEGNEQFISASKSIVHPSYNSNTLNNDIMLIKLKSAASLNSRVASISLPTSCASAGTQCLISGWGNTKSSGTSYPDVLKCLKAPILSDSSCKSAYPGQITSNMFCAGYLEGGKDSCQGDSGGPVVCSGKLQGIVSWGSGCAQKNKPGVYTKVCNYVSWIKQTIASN
Method: (§1) Inhibitory activity against various proteases
(§2) The compound of the present invention having predetermined concentrations was tested for the specificity of the inhibitory activity against various proteases according to a known test method.
(§3) The methods for the determination of the inhibitory activity against various proteases other than prolyl endopeptidase and the method for calculating the inhibition are as follows.
Determination of trypsin-inhibitory activity
In the present invention, a 50 mM Tris-HCI buffer (pH 8.0) was used as a buffer for measurement.
To a mixture of the above-mentioned buffer (850 μl ), a solution of the compound of the present invention in the same buffer (50 μl ) and a 0.02 μM solution of trypsin (derived from bovine pancreas, Sigma) in the same buffer (50 μl ) was added a 200 μM solution of 7-(prolyl-phenylaranyl-arginyl)-4methylcoumarinamide (Peptide Institute, Inc.) in the same buffer (50 μl), and the mixture was incubated at 30° C. for 1 hour. The reaction mixture was immersed in ice (0° C.) to terminate the reaction, and the fluorescence (b1) was determined 1 hour later (excitation at 370 nm and emission at 440 nm). Concurrently, an experiment wherein, in the system above, the trypsin solution was substituted for a buffer and an experiment wherein the solution of the compound of the present invention was substituted for said buffer were conducted. Each fluorescence (b2 and b3) was determined.
(§4) Using the fluorescence x1, x2 and x3 wherein x is b, c, d, e or f, measured in the above-mentioned manner, the inhibition against various proteases was calculated by the following formula: [formula]

chymotrypsin = target: T3, chymotrypsin (Bos taurus, UniProt P00766); assay: Chymotrypsin-inhibitory activity; details: concentration 0.1 μM; bovine pancreas, pH 8.0
T3 construct: purchased Sigma; host or cells: bovine pancreas
Method: as §1, §2, §3
Determination of chymotrypsin-inhibitory activity
In completely the same manner as above, respective fluorescence (c1, c2 and c3) was determined using a 50 mM Tris-HCl buffer (pH 8.0) as a buffer for determination, a 0.2 μM solution of chymotrypsin (derived from bovine pancreas, Sigma) in the same buffer as an enzyme solution, and a 200 μM solution of 7-(N-succinyl-leucyl-leucyl-varyl-tyrosyl)-4-methylcoumarinamide (Peptide Institute, Inc.) in the same buffer as a substrate solution.
as §4

leucine aminopeptidase = assay: Leucine aminopeptidase-inhibitory activity; details: concentration 0.1 μM; swine kidney, pH 8.0
Method: as §1, §2, §3
Determination of leucine aminopeptidase-inhibitory activity
In completely the same manner as above, respective fluorescence (d1, d2 and d3) was determined using a 50 mM Tris-HCl buffer (pH 8.0) as a buffer for determination, a 0.2 μM solution of leucine aminopeptidase (derived from swine kidney, Sigma) in the same buffer as an enzyme solution and a 200 μM solution of 7-leucyl-4-methyl-coumarinamide (Peptide Institute, Inc.) in the same buffer as a substrate solution.
as §4

elastase = target: T4, elastase (Sus scrofa, UniProt P00772); assay: Elastase-inhibitory activity; details: concentration 0.1 μM; swine pancreas, pH 8.5
T4 construct: purchased Sigma; host or cells: swine pancreas
Method: as §1, §2, §3
Determination of elastase-inhibitory activity
In completely the same manner as above, respective fluorescence (e1, e2 and e3) was determined using a 1 mM Tris-HCl buffer (pH 8.5) as a buffer for determination, a 0.2 μM solution of elastase (derived from swine pancreas, Sigma) in the same buffer as an enzyme solution and a 200 μM solution of 7-(N-succinyl-aranyl-prolyl-aranyl)-4-methylcoumarinamide (Peptide Institute, Inc.) in the same buffer as a substrate solution.
as §4

cathepsin B = target: T5, cathepsin B (Bos taurus, UniProt P07688); assay: Cathepsin B-inhibitory activity; details: concentration 0.1 μM; bovine spleen, pH 6.0
T5 construct: purchased Sigma; host or cells: bovine spleen
Method: as §1, §2, §3
Determination of cathepsin B-inhibitory activity
In completely the same manner as above, respective fluorescence (f1, f2 and f3) was determined using a 100 mM sodium phosphate buffer (pH 6.0; containing 1.33 mM EDTA Na2) as a buffer for determination, a 0.02 μM solution of cathepsin B (derived from bovine spleen, Sigma) in the same buffer as an enzyme solution and a 200 μM solution of 7-(N-benzyloxy-carbonyl-phenylaranyl-arginyl)-4-methylcouma-rinamide (Peptid Institute, Inc.) in the same buffer as a substrate solution.
as §4

T4 sequence (P00772 27-266): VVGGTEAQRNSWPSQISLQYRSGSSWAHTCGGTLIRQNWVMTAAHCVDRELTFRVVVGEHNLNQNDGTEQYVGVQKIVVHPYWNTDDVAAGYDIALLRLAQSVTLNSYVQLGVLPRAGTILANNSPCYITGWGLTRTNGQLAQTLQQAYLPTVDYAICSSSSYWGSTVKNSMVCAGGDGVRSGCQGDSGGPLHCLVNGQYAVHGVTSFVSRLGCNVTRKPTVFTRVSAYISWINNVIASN

SMILES: O=C(OCC(=O)[C@@H]1CCCN1C(=O)[C@@H]1CCCN1C(=O)NCc1ccccc1)c1ccccc1 [Compound 3]
- IC50 (prolyl endopeptidase): 0.1 nM
- inhibition at 0.1 µM (prolyl endopeptidase; read-out: inhibition of prolyl endopeptidase): 98%
- inhibition at 0.1 µM (trypsin): 0%
- inhibition at 0.1 µM (chymotrypsin): 0%
- inhibition of leucine aminopeptidase (leucine aminopeptidase): 0%
- inhibition at 0.1 µM (elastase): 0%
- inhibition at 0.1 µM (cathepsin B): 0%
